Assay results as given in patent US12268683B2, “Compounds and methods for synergistic activation of M channels” (THE REGENTS OF THE UNIVERSITY OF CALIFORNIA, priority 2018, dated 2025).
Blank lines part the entries; values can stand above or below the compound they belong to.

What was measured:
KCNA1 = KCNA1 (Homo sapiens, UniProt Q09470); assay: TEVC of KCNA1 expressed in Xenopus oocytes; type: cell-based
From the text: cRNA transcripts encoding human KCNA1, KCNQ1, KCNQ2, KCNQ3, KCNQ4, or KCNQ5 were generated by in vitro transcription using the T7 polymerase message machine kit (Thermo Fisher Scientific), after vector linearization, from cDNA sub-cloned into plasmids incorporating X. laevis β-globin 5′ and 3′ UTRs flanking the coding region to enhance translation and cRNA stability. cRNA was quantified by spectrophotometry. Mutant cDNAs were generated by site-directed mutagenesis using a QuikChange kit according to manufacturer's protocol (Stratagene, San Diego, Calif.) and corresponding cRNAs prepared as above. Defolliculated stage V and VI X. laevis oocytes (Ecocyte Bioscience, Austin, Tex.) were injected with Kv channel a subunit cRNAs (10 ng total per oocyte). […]
TEVC recording was performed at room temperature with an OC-725C amplifier (Warner Instruments, Hamden, Conn.) and pClamp10.2 software (Molecular Devices, Sunnyvale, Calif.) 3-5 days after cRNA injection as described in the section above. […] Currents were recorded in response to pulses between −80 and +40 mV at 20 mV intervals, or a single pulse to +40 mV, from a holding potential of −80 mV, to yield current-voltage relationships, current magnitude, and for quantifying activation rate. […]

[1] = test system: pentylene tetrazole-induced seizures; assay: PTZ chemoconvulsant assay; type: in vivo, mouse; settings: for clonic seizure incidence: alone
From the text: We compared anticonvulsant activities of test compounds in male C57BL/6 mice (Charles River) aged 2-3 months. Mice were housed and used according to the recommendations in the Guide for the Care and Use of Laboratory Animals of the National Institutes of Health (NIH Publication, 8th edition, 2011). The study protocol was approved by the Institutional Animal Care and Use Committee of University of California, Irvine, which confirmed that all relevant ethical regulations were adhered to. Chemicals were sourced from Sigma (St. Louis, Mo., USA). A pentylene tetrazole (PTZ) chemoconvulsant assay was used-. […] Following the PTZ injection, mice were caged individually and an observer (GWA) blinded to the drug used recorded, over 20 min, clonic and tonic seizure incidence, and seizure-related mortality.
We quantified the anticonvulsant activities of (E)-2-dodecenal and tridecanal in male C57BL/6 mice (Charles River, Wilmington, Mass.) aged 2-3 months. The mice were housed and used according to the recommendations in the Guide for the Care and Use of Laboratory Animals of the National Institutes of Health (NIH Publication, 8th edition, 2011). The study protocol was approved by the Institutional Animal Care and Use Committee of University of California, Irvine. The chemicals were sourced from Sigma (St. Louis, Mo., USA). We used a pentylene tetrazole (PTZ) chemoconvulsant assay as we previously described (30). We injected the mice intraperitoneally with (E)-2-dodecenal (2 or 20 mgkg^−1) (with or without 2.5 mgkg^−1 XE991) or tridecanal (20 mgkg^−1) solubilized in PBS, or vehicle control (PBS), and then 30 minutes later we injected mice intraperitoneally with 80 mgkg-PTZ. Following the PTZ injection, the mice were caged individually and an observer (GWA) blinded to the experimental condition timed the latency to first seizure.
We compared anticonvulsant activities of 3FMSG in male C57BL/6 mice (Charles River) aged 2-3 months. Mice were housed and used according to the recommendations in the Guide for the Care and Use of Laboratory Animals of the National Institutes of Health (NIH Publication, 8th edition, 2011). The study protocol was approved by the Institutional Animal Care and Use Committee of University of California, Irvine, which confirmed that all relevant ethical regulations were adhered to. Chemicals were sourced from Sigma (St. Louis, Mo., USA). We used a pentylene tetrazole (PTZ) chemoconvulsant assay as we previously described^27. Mice were injected intraperitoneally with 3FMSG (5 mg kg^−1) or vehicle control (PBS) and then 30 minutes later injected intraperitoneally with 80 mg kg^−1 PTZ. Following the PTZ injection, mice were caged individually and an observer (GWA) blinded to the drug used recorded seizure activity over 20 minutes.

[2] = humans; cited from earlier work

Sequence of KCNA1 (Q09470 whole entry): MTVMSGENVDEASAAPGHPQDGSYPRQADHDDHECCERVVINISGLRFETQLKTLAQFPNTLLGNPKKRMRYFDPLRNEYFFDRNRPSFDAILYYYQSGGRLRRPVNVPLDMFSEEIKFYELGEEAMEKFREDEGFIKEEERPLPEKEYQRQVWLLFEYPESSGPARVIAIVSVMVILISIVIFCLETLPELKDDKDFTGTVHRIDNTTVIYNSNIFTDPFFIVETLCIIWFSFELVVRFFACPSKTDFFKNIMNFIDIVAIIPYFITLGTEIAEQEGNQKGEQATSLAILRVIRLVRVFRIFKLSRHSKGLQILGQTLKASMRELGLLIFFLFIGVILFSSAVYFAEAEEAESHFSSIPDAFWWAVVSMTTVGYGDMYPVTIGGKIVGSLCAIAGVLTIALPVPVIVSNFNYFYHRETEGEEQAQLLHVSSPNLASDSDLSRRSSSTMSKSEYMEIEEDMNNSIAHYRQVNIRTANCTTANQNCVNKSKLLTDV

effect on KCNA1 (in words) (KCNA1): did not alter currents
SMILES: CC(C)CC(=O)O [IVA, isovaleric acid]
clonic seizure incidence ([1]; 10 mg/kg i.p.): neither compound reduced clonic seizures alone | clonic seizure incidence ([1]; 20 mg/kg i.p.): no effect | suppression of PTZ-induced tonic seizures ([1]; individually): ineffective

SMILES: CC(C)CC(N)=O [Isovaleramide, isovaleramide]
mean Tmax [2]: 30 to 45 min | well tolerated dose [2]: at least 2400 mg per day
